Converted amounts (≈) assume the structure as drawn.
Key:
Assay in all cases: Broth dilution MIC
Format in all cases: cell-based
[1] = test system: E. coli GC 3226; details: Escherichia coli, GC3226; E. coli GC 3226; Mueller-Hinton broth, 18 hours at 35° C.; read-out: Antimicrobial Activity (MIC)
Summary of the method: (§1)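 Broth dilution in Mueller-Hinton medium with 18 h incubation at 35° C.; the minimal concentration that stops growth of each strain is the MIC.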

[2] = test system: M. morganii GC 4531; details: Morganella morganii, GC4531; M. morganii GC 4531; Mueller-Hinton broth, 18 hours at 35° C.; read-out: Antimicrobial Activity (MIC)
Summary of the method: as §1

[3] = test system: E. faecalis GC 4555; details: Enterococcus faecalis, GC4555; E. faecalis GC 4555; Mueller-Hinton broth, 18 hours at 35° C.; read-out: Antimicrobial Activity (MIC)
Summary of the method: as §1

[4] = test system: P. rettgeri GC 4530; details: Providencia rettgeri, GC4530; P. rettgeri GC 4530; Mueller-Hinton broth, 18 hours at 35° C.; read-out: Antimicrobial Activity (MIC)
Summary of the method: as §1

[5] = test system: S. aureus GC 1131; details: Staphylococcus aureus, GC1131; S. aureus GC 1131; Mueller-Hinton broth, 18 hours at 35° C.; read-out: Antimicrobial Activity (MIC)
Summary of the method: as §1

[6] = test system: E. coli GC 4560; details: Escherichia coli, GC4560, 18 h, read-out: Antimicrobial Activity (MIC)
Summary of the method: as §1

[7] = test system: E. cloacae GC 3783; details: Enterobacter cloacae, GC3783; E. cloacae GC 3783; Mueller-Hinton broth, 18 hours at 35° C.; read-out: Antimicrobial Activity (MIC)
Summary of the method: as §1

[8] = test system: E. coli GC 2203; details: Escherichia coli, GC2203; E. coli GC 2203; Mueller-Hinton broth, 18 hours at 35° C.; read-out: Antimicrobial Activity (MIC)
Summary of the method: as §1

[9] = test system: CNS GC 4537; details: CNS GC 4537; Mueller-Hinton broth, 18 hours at 35° C.; read-out: Antimicrobial Activity (MIC)
Summary of the method: as §1

[10] = test system: CNS GC 4547; details: CNS GC 4547; Mueller-Hinton broth, 18 hours at 35° C.; read-out: Antimicrobial Activity (MIC)
Summary of the method: as §1

[11] = test system: E. coli GC 4559; details: Escherichia coli, GC4559; E. coli GC 4559; Mueller-Hinton broth, 18 hours at 35° C.; read-out: Antimicrobial Activity (MIC)
Summary of the method: as §1

[12] = test system: S. marcescens GC 4077; details: Serratia marcescens, GC4077; S. marcescens GC 4077; Mueller-Hinton broth, 18 hours at 35° C.; read-out: Antimicrobial Activity (MIC)
Summary of the method: as §1

[13] = test system: P. aeruginosa GC 4532; details: Pseudomonas aeruginosa, GC4532; P. aeruginosa GC 4532; Mueller-Hinton broth, 18 hours at 35° C.; read-out: Antimicrobial Activity (MIC)
Summary of the method: as §1

[14] = test system: CNS GC 4538; details: CNS GC 4538; Mueller-Hinton broth, 18 hours at 35° C.; read-out: Antimicrobial Activity (MIC)
Summary of the method: as §1

[15] = test system: E. faecalis GC 2242; details: Enterococcus faecalis, GC2242; E. faecalis GC 2242; Mueller-Hinton broth, 18 hours at 35° C.; read-out: Antimicrobial Activity (MIC)
Summary of the method: as §1

[16] = test system: S. aureus GC 4536; details: Staphylococcus aureus, GC4536; S. aureus GC 4536; Mueller-Hinton broth, 18 hours at 35° C.; read-out: Antimicrobial Activity (MIC)
Summary of the method: as §1

[17] = test system: E. faecalis GC 842; details: Enterococcus faecalis, GC842; E. faecalis GC 842; Mueller-Hinton broth, 18 hours at 35° C.; read-out: Antimicrobial Activity (MIC)
Summary of the method: as §1

[18] = test system: K. pneumoniae GC 4534; details: Klebsiella pneumoniae, GC4534; K. pneumoniae GC 4534; Mueller-Hinton broth, 18 hours at 35° C.; read-out: Antimicrobial Activity (MIC)
Summary of the method: as §1

[19] = test system: P. aeruginosa GC 2214; details: Pseudomonas aeruginosa, GC2214; P. aeruginosa GC 2214; Mueller-Hinton broth, 18 hours at 35° C.; read-out: Antimicrobial Activity (MIC)
Summary of the method: as §1

[20] = test system: S. aureus GC 2216; details: Staphylococcus aureus, GC2216; S. aureus GC 2216; Mueller-Hinton broth, 18 hours at 35° C.; read-out: Antimicrobial Activity (MIC)
Summary of the method: as §1

CO[C@H]1C(O[C@H](C(C(=O)O)N(CCCNC(=O)C(NC(=O)C(NC(=O)NC(C(=O)O)C(C)C)C2CCNC(=N)N2)C(O)C(C)C)Cc2ccccc2)[C@H]2O[C@@H](n3ccc(=O)[nH]c3=O)[C@H](O)[C@@H]2O)O[C@H](CNCc2ccccc2)[C@@H]1O (stereo partly drawn) [Example 20B, 15-Benzyl-16-((R)-({(3R,4S,5R)-5-[(benzylamino)methyl]-4-hydroxy-3-methoxytetrahydro-2-furanyl}oxy){(2S,3S,4R,5R)-5-[2,4-dioxo-3,4-dihydro-1 (2H)-pyrimidinyl]-3,4-dihydroxytetrahydro-2-furanyl}methyl)-9-(1-hydroxy-2-methylpropyl)-6-(2-iminohexahydro-4-pyrimidinyl)-2-isopropyl-4,7,10-trioxo-3,5,8,11,15-pentaazaheptadecane-1,17-dioic Acid]
MIC [1]: > 32 µg/mL | MIC [2]: > 32 µg/mL | MIC [3]: > 32 µg/mL | MIC [4]: > 32 µg/mL | MIC [5]: > 32 µg/mL | MIC [6]: 32 µg/mL (≈ 28.4 µM) | MIC [7]: > 32 µg/mL | MIC [8]: > 32 µg/mL | MIC [9]: > 32 µg/mL | MIC [10]: > 32 µg/mL | MIC [11]: > 32 µg/mL | MIC [12]: > 32 µg/mL | MIC [13]: > 32 µg/mL | MIC [14]: > 32 µg/mL | MIC [15]: > 32 µg/mL | MIC [16]: > 32 µg/mL | MIC [17]: > 32 µg/mL | MIC [18]: > 32 µg/mL | MIC [19]: > 32 µg/mL | MIC [20]: > 32 µg/mL
